Laboratory results reported in paper PMC10587169, “Tuning aminopolycarboxylate chelators for efficient complexation of trivalent actinides” (Scientific Reports, 2023).

Columns and labels:
[1] = Potentiometric complexometric titration; assay type: binding; details: for logβ101 (ML), Nd / logβ111 (MHL), Nd / logK111, Dy / logK111, Eu / logK111, Ho / logK111, La / logK111, Lu / logK111, Nd / logK111, Tb / logβ101 (ML), Dy / logβ101 (ML), Eu / logβ101 (ML), Ho / logβ101 (ML), La / logβ101 (ML), Lu / logβ101 (ML), Tb / logβ111 (MHL), Dy / logβ111 (MHL), Eu / logβ111 (MHL), Ho / logβ111 (MHL), La / logβ111 (MHL), Lu / logβ111 (MHL), Tb: potentiometry, I = 2.0 M (Na+/H+)ClO4, T = 20.0 °C; for logK111, Dy / logK111, Eu / logK111, Ho / logK111, La / logK111, Lu / logK111, Nd / logK111, Tb / logβ101 (ML), Dy / logβ101 (ML), Eu / logβ101 (ML), Ho / logβ101 (ML), La / logβ101 (ML), Lu / logβ101 (ML), Tb / logβ111 (MHL), Dy / logβ111 (MHL), Eu / logβ111 (MHL), Ho / logβ111 (MHL), La / logβ111 (MHL), Lu / logβ111 (MHL), Tb: ±3σ
Description: All potentiometric titrations were run using a Mettler Toledo T90 autotitrator equipped with an Orion Ross Semi-micro glass electrode with the junction stabilization solution changed to 5.0 M NaCl to prevent precipitation with perchlorate media. All titrations were performed under a hydrated nitrogen atmosphere. The forward titration measurements (acidic titrand, basic titrant) of H4octapa in nitrate electrolyte medium were performed as described previously due to the limited solubility of this ligand in a 2 M (Na^+/H^+)ClO4 medium. Acid dissociation constants of H4octapa in perchlorate electrolyte medium were also determined by titrating in reverse (basic titrand, acidic titrant) to alleviate the solubility concerns. Titrations of H4pypa-peg were performed in reduced-volume glass titration cups (10 mL nominal) due to the limited supply of this ligand. All potentiometric titrations were run in triplicate. The choice of using p[H^+] was explained in Heathman et al.[15], and the calibration of the p[H^+] scale utilized Gran analysis through titration of a strong acid with the base used in the potentiometric titrations[29]–[31]. Potentiometric titration data was modeled and analyzed using Hyperquad2013 to determine acid dissociation and metal complexation stability constants[32],[33].
The coordination of La^3+, Nd^3+, Eu^3+, Tb^3+, Dy^3+, Ho^3+, and Lu^3+ with H4octapa and H4pypa-peg was studied. Figures 4A, B show the potentiometric curves collected when Nd^3+ was titrated with H4octapa and H4pypa-peg, respectively. Both p[H^+] curves show the characteristic buffering region due to deprotonation of metal–ligand complexes when titrated with base. The experimental p[H^+] trend is best represented when considering the presence of MHL(aq) and ML^– complexes as generalized by Eqs. (4) and (5). The progressive formation of the metal complexes throughout the titration is illustrated by species distribution curves, also shown in Figs. 4A, B. The complex formation equilibria are described by the conditional stability constants, β101 and β111, listed in Table 3.

[2] = Spectrophotometric titration; assay type: binding
Description: Changes in the optical absorption characteristics of Nd^3+ were monitored using a Cary 6000i UV/Vis–NIR Spectrometer (Agilent) using 1 cm semimicro quartz cuvettes (Starna) in double-beam mode, where the ^4I9/2 → ^4G5/2, ^2G7/2 transitions[34] were monitored between 560 and 605 nm with a 0.075 nm interval and 1.0 nm spectral bandwidth. Changes in the optical absorption characteristics of ^243Am^3+ and ^248Cm^3+ were monitored using a Flame-S-VIS–NIR-ES spectrometer coupled to a DH-2000-BAL dual-mode light source (Ocean Optics) with a single 1 cm semimicro quartz cuvette (Starna). The light source and spectrometer were optically coupled to the CUV sample (Ocean Optics) holder using 2 m fiberoptics (200 μm) and the parameters for acquisition were 0.369 nm interval and 1000 scans averaged with an integration time/scan 1.08 ms (total acquisition time ~ 1 s). The complexation of Am^3+ with the ligands was monitored in the 495–525 nm spectral region, looking at the ^7F0′ → ^5L6′ transition[23],[35]. For Cm^3+, ligand complexation was monitored in the 365–410 nm spectral region, looking at the ^8S7/2 → ^2Ji (i = {15}, {13,9}, {11,17}) manifold transitions[24],[25],[36]. Changes in aqueous p[H^+] were monitored throughout each titration step using a Gran-calibrated Orion Ross Semi-micro glass electrode. Baseline correction was applied to all datasets and was typically a simple linear subtraction. However, in the case of the ^248Cm/H4pypa-peg spectra, the tail end of the ligand absorption overlapped the hypersensitive Cm peaks. In this case the background correction was applied using a 5th-order empirical polynomial. Finally, the spectroscopic data was analyzed using the HypSpec software package[33],[37]. Full details of the titrand and titrant solutions for each titration are included in the Supplemental Information.
The coordination of Nd^3+ by H4octapa and H4pypa-peg was also studied using spectroscopic methods. Figures 5A, B show the collected spectrophotometric signatures for H4octapa and H4pypa-peg, respectively.4 M^3++L^4-⇆ML^-β101=ML^-/[M^3+]L^4- 5 M^3++H^++L^4-⇆MHLaqβ111=MHLaq/[M^3+L^4-H^+]
Optical absorption features of ^4I9/2 → ^4G5/2, ^2G7/2 transitions for Nd^3+ are perturbed due to the introduction of increasing quantities of complexants, resulting in characteristic red-shifted changes. In Fig. 5A a broad absorption band with λmax = 577 nm is distinctly different to the optical absorption of free Nd^3+ metal in Fig. 5B. The differences can be attributed to the nitrate complexation of Nd^3+ as the spectrophotometric titration with H4octapa was performed in 2.0 M (Na^+/H^+)NO3. […] The HypSpec interpretation of the Nd/pypa-peg titration points to the presence of three absorbing species: Nd^3+, NdHL(aq), and NdL^−. The conditional stability constants obtained spectroscopically are listed in Table 3, showing good agreement with the stability constants determined using potentiometry. The complex stability constants for structurally similar APC ligands found in the literature are also presented (H4pypa[18] and H4py4pa[57]).
2. Spectrophotometric titration parameters
Nd3+: The titrand solution consisting of 1.980 mL of 7.57 mM Nd(ClO4)3 at p[H+] = 1.61 was blended with 1.965 mL of titrant solution containing 7.62 mM Nd3+, 18.57 mM H4octapa, […]
Am3+: The titrand solution consisting of 0.842 mL of 0.810 mM Am(ClO4)3 at p[H+] =1.66 was blended with 0.811 mL of titrant solution containing 0.815 mM Am3+, 8.95 mM H4octapa, at p[H+] ≈ 5.0 – 6.0.
Nd3+: The titrand solution consisting of 0.801 mL of 9.82 mM Nd(ClO4)3 at p[H+] = 1.61 was blended with 1.176 mL of titrant solution containing 9.91 mM Nd3+ and 24.58 mM H4pypa-peg in with p[H+] ≈ 3.0 – 4.0.
Am3+: The titrand solution consisting of 0.806 mL of 0.791 mM Am(ClO4)3 at p[H+] = 1.41 was blended with 0.787 mL of titrant solution containing 0.801 mM Am3+ and 15.09 mM H4pypa-peg at p[H+] ≈ 5 – 6.
Cm3+: The titrand solution consist ing of 0.809 mL of 1.00 mM Cm(ClO4)3 at p[H+] = 1.34 was […]

[3] = spectrophotometrically determined in 2.0 M (Na+/H+)ClO4, 20 °C

Structure (SMILES) | logβ101 (ML), Nd [1] | logβ111 (MHL), Nd [1] | logK111, Dy [1] | logK111, Eu [1] | logK111, Ho [1] | logK111, La [1] | logK111, Lu [1] | logK111, Nd [1] | logK111, Tb [1] | logβ101 (ML), Dy [1] | logβ101 (ML), Eu [1] | logβ101 (ML), Ho [1] | logβ101 (ML), La [1] | logβ101 (ML), Lu [1] | logβ101 (ML), Tb [1] | logβ111 (MHL), Dy [1] | logβ111 (MHL), Eu [1] | logβ111 (MHL), Ho [1] | logβ101 (ML), Nd [2, 3] | logβ111 (MHL), Nd [2, 3] | other results
O=C(O)CN(CCN(CC(=O)O)Cc1cccc(C(=O)O)n1)Cc1cccc(C(=O)O)n1 [H4octapa, 6,6′-((ethane-1,2-diylbis–((carboxymethyl)azanediyl))bis–(methylene))dipicolinic acid] | 18.19 (1) | 19.92 (2) – | 1.28 (2) | 1.13 (4) | 0.53 (2) | 1.53 (4) | 1.69 (4) | 1.73 (2) – | 1.04 (7) | 18.48 (2) | 18.49 (2) | 18.57 (2) | 17.77 (2) | 17.97 (3) | 18.55 (2) | 19.76 (1) | 19.62 (4) | 19.10 (1) |  |  | logβ111 (MHL), La [1]: 19.30 (4); logβ111 (MHL), Lu [1]: 19.66 (4); logβ111 (MHL), Tb [1]: 19.59 (7); logβ101 (ML), Nd ([2]; spectrophotometrically determined in 2.0 M (Na+/H+)NO3): 18.15 (1)
O=C(O)CN(Cc1cc(-c2cn(CCOCCOCCO)nn2)cc(CN(CC(=O)O)Cc2cccc(C(=O)O)n2)n1)Cc1cccc(C(=O)O)n1 [H4pypa-peg, 6,6'-((((4-(1-(2-(2-(2-hydroxyethoxy)ethoxy)ethyl)-1H-1,2,3-triazol-4-yl)pyridine-2,6-diyl)bis–(methylene))bis–((carboxymethyl)azanediyl))bis–(methylene)) dipicolinic acid] | 18.20 (2) | 20.43 (2) | 1.97 (2) | 1.96 (1) | 1.80 (4) | 2.32 (1) | 1.87 (5) | 2.22 (2) | 2.02 (2) | 20.05 (1) | 18.91 (1) | 20.50 (4) | 17.86 (1) | 20.72 (5) | 19.75 (2) | 22.03 (2) | 20.87 (1) | 22.31 (4) | 18.15 (6) | 20.04 (4) | logβ111 (MHL), La [1]: 20.18 (1); logβ111 (MHL), Lu [1]: 22.60 (5); logβ111 (MHL), Tb [1]: 21.77 (2); logK111, Nd ([2]; spectrophotometrically determined in 2.0 M (Na+/H+)ClO4): 1.89 (6)
O=C(O)CN(CCN(CC(=O)O)CC(=O)O)CCN(CC(=O)O)CC(=O)O [H5dtpa, diethylenetriamine-N,N,N',N'',N''-pentaacetic acid] |  |  |  |  |  |  |  |  |  |  |  |  |  |  |  |  |  |  | 20.23(2) | 21.59(2) | 
O=C(O)CN(CCN(CCN(CC(=O)O)CC(=O)O)CC(=O)O)CCN(CC(=O)O)CC(=O)O [H6ttha, triethylenetetraamine-N,N,N',N'',N''',N'''-hexaacetic acid] | 21.78(2) | 25.42(2) |  |  |  |  |  |  |  |  |  |  |  |  |  |  |  |  | 21.90(7) | 25.56(7) | logβ121 (MH2L), Nd3+ ([1]; determined using potentiometry, I = 2.0 M (Na+/H+)ClO4 at 20.0 °C): 27.74(3)
